A short description of this data set: Caco-2 permeation assay. To be noted: human, pH 7.2, Caco-2, test compound 2 μM. The class given is in vitro ADME. The method, then:
4. Caco-2 Permeation Assay:
Caco-2 cells (purchased from DSMZ Braunschweig, Germany) were seeded at a density of 4.5×10^4 cells per well on 24 well insert plates, 0.4 μm pore size, and grown for 15 days in DMEM medium supplemented with 10% fetal bovine serum, 1% GlutaMAX (100x, GIBCO), 100 U/mL penicillin, 100 μg/mL streptomycin (GIBCO) and 1% non essential amino acids (100×). Cells were maintained at 37° C. in a humified 5% CO2 atmosphere. Medium was changed every 2-3 day. Before running the permeation assay, the culture medium was replaced by a FCS-free hepes-carbonate transport buffer (pH 7.2). For assessment of monolayer integrity the transepithelial electrical resistance (TEER) was measured. Test compounds were predissolved in DMSO and added either to the apical or basolateral compartment in final concentration of 2 μM in transport buffer. Before and after 2h incubation at 37° C. samples were taken from both compartments. Analysis of compound content was done after precipitation with methanol by LC/MS/MS analysis. Permeability (Papp) was calculated in the apical to basolateral (A →B) and basolateral to apical (B→A) directions. The apparent permeability was calculated using following equation: Papp=(Vr/Po)(1/S)(P2/t)
Where Vr is the volume of medium in the receiver chamber, Po is the measured peak area or height of the test drug in the donor chamber at t=o, S the surface area of the monolayer, P2 is the measured peak area of the test drug in the acceptor chamber after 2h of incubation, and t is the incubation time. The efflux ratio basolateral (B) to apical (A) was calculated by dividing the Papp B-A by the Papp A-B. In addition the compound recovery was calculated. The following reference compounds were used for the classification of the permeability class: Antipyrine, Pyrazosin, Verapamil, Fluvastatin, Cimetidine, Ranitidine, Atenolol, Sulfasalazine.
Background: Caco-2 cells form a polarised layer with tight junctions and transporters.

The record followed here is US9708293B2, “N-(pyridin-2-yl)pyrimidin-4-amine derivatives containing a sulfone group” (BAYER PHARMA AKTIENGESELLSCHAFT, priority 2012, dated 2017).

Broadly, the Papp A→B is the apparent permeability from the apical to the basolateral side of a cell layer. For orientation: Papp B→A means the apparent permeability from the basolateral to the apical side of a cell layer. In general, efflux ratio refers to a quotient of directional permeabilities that is used to spot active efflux.

The structures appear in SMILES notation.

In the case of `COc1cc(F)ccc1-c1cc(Nc2cc(CS(C)(=O)=O)ccn2)ncn1` [Example 1, 6-(4-Fluoro-2-methoxyphenyl)-N-{4-[(methylsulfonyl)methyl]pyridin-2-yl}pyrimidin-4-amine], the Papp A→B at 2 h, 2 μM (2h incubation, apical to basolateral, read-out: Papp A-B (Mari)) was 178 nm/s. Moreover, where the note is “2h incubation, basolateral to apical, read-out: Papp B-A (Mari)”, the Papp B→A at 2 h, 2 μM came to 191 nm/s. For the same molecule, under “Papp B-A / Papp A-B”, the efflux ratio at 2 h, 2 μM turned out to be 1.1.
